Measured values published in patent US9067972B2, “Skin aging-inhibiting peptide” (CALPIS CO., LTD., priority 2008, dated 2015).
Peptide text beside a SMILES is read from it.

The compounds below were run on Caco-2 cells.
Protocol: Caco-2 cells were obtained from the American Type Culture Collection. Cells with a passage number of 40 to 70 were used for the permeation test. The culture medium comprised Dulbecco's modified Eagle's medium (Sigma) supplemented with fetal bovine serum (10%, AGC TECHNO GLASS CO., LTD.), a non-essential amino acid solution (1%, Gibco), and penicillin-streptomycin (each 200 IU/ml, 200 μg/ml, Gibco). The Caco-2 cells were cultured under humidified conditions at 37° C. and 5% CO2, and subcultured for every 4 to 5 days. For the permeation test, the cells were cultured on a membrane filter in a 12-transwell (Millipore). To a basal side 1.5 ml of the culture medium was added and 0.5 ml of culture medium was added to an apical side, and the cells were cultured for approximately 2 weeks. The enzymatic hydrolysate of the fermented milk was added to the apical side of the cultured Caco-2 cells. Peptides which were permeated to the basal side were collected. For comparison, the same test was performed on a digestive tract enzyme-degraded product of non-fermented reconstituted skimmed milk with a reconstitution ratio of 8.9%.
The peptides which were permeated to the basal solution were subjected to solid phase extraction (SepPak tC18, Waters) to thereby concentrate the peptide component and then the peptides were determine by using a high-performance liquid chromatograph tandem mass spectrometer (LCMS-IT-TOF, Shimadzu Corporation). PEAKS (Bioinformatics Solutions Inc) was used to analyze the data. Based on the information obtained from MS/MS, de novo sequencing was performed to determine the amino acid sequence of the permeated peptides. Comparison was made between the detected peptides and peptides contained in a digestive tract enzyme-hydrolyzed product of a milk protein.

Row | SMILES | Permeation through Caco-2 monolayer (apical to basal side)
1 | CC[C@H](C)[C@H](NC(=O)[C@@H](N)CC(N)=O)C(=O)N1CCC[C@H]1C(=O)N1CCC[C@H]1C(=O)N[C@@H](CC(C)C)C(=O)O [Asn-Ile-Pro-Pro-Leu] (H-NIPPL-OH; N-terminus and C-terminus assumed) | permeable
2 | CC[C@H](C)[C@H](N)C(=O)N1CCC[C@H]1C(=O)N1CCC[C@H]1C(=O)N[C@@H](CC(C)C)C(=O)O [Ile-Pro-Pro-Leu] (H-IPPL-OH; N-terminus and C-terminus assumed) | permeable
3 | CC[C@H](C)[C@H](N)C(=O)N1CCC[C@H]1C(=O)N1CCC[C@H]1C(=O)O [Ile-Pro-Pro] | permeable
4 | CC(C)C[C@H](N)C(=O)N1CCC[C@H]1C(=O)N1CCC[C@H]1C(=O)N[C@H](C(=O)O)[C@@H](C)O [Leu-Pro-Pro-Thr] (H-LPPT-OH; N-terminus and C-terminus assumed) | permeable
5 | NC(=O)CC[C@H](NC(=O)[C@@H]1CCCN1C(=O)[C@@H]1CCCN1C(=O)[C@@H](N)Cc1ccccc1)C(=O)O [Phe-Pro-Pro-Gln] (H-FPPQ-OH; N-terminus and C-terminus assumed) | permeable
6 | CC(C)[C@H](NC(=O)[C@@H]1CCCN1)C(=O)N[C@H](C(=O)N[C@H](C(=O)N1CCC[C@H]1C(=O)N1CCC[C@H]1C(=O)O)C(C)C)C(C)C [Pro-Val-Val-Val-Pro-Pro] (H-PVVVPP-OH; N-terminus and C-terminus assumed) | permeable
7 | CC(C)[C@H](N)C(=O)N1CCC[C@H]1C(=O)N1CCC[C@H]1C(=O)N[C@@H](Cc1ccccc1)C(=O)O [Val-Pro-Pro-Phe] (H-VPPF-OH; N-terminus and C-terminus assumed) | permeable
8 | CC(C)[C@H](N)C(=O)N1CCC[C@H]1C(=O)N1CCC[C@H]1C(=O)O [Val-Pro-Pro] | permeable
